Experimental data reported in patent US20250171437A1 (Agios Pharmaceuticals,Inc., priority 2022, published 2025).

target: T1, human PAH with the R408W mutation (A375 R408W cells) (Homo sapiens, UniProt P00439, R408W); assay: Cell Based Phenylalanine Flux Assay; conditions: A375 R408W cells; 24 hrs with compound, then 20 μM sepiapterin and 800 μM 13C9,15N-Phenylalanine for 4 hours; 13C-Tyrosine by LC-MS; average where tested multiple times
T1 construct: expressed in transfected cells
T1 sequence (P00439 1-452 R408W): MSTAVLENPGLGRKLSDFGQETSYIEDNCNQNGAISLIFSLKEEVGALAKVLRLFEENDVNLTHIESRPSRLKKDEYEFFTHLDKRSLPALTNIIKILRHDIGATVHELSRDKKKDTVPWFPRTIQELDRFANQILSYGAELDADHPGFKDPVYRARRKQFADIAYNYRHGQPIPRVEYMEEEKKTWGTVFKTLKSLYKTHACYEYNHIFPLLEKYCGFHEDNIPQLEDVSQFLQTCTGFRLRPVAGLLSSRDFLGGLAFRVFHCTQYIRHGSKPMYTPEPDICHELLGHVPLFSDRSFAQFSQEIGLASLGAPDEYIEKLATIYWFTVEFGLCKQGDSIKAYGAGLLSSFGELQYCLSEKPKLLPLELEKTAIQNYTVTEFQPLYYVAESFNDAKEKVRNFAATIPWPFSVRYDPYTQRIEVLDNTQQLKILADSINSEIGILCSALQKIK
Method in brief: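 Phenylalanine-to-tyrosine flux is measured in A375 cells carrying stable human R408W PAH. After 24 h compound exposure, 13C9,15N-Phe (800 μM) with sepiapterin (20 μM) is supplied for 4 h and media 13C-Tyr is read by LC-MS; AC50s are binned.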

| AC50 [nM] | Compound |
| --- | --- |
| 500 to 1000 | Cc1cccc2nc([C@@H]3c4nc[nH]c4CCN3C(=O)c3nc(C(F)(F)F)nn3C)oc12 [Example 685, (S)-(1-methyl-3-(trifluoromethyl)-1H-1,2,4-triazol-5-yl)(4-(7-methylbenzo[d]oxazol-2-yl)-6,7-dihydro-1H-imidazo[4,5-c]pyridin-5(4H)-yl)methanone] |
| 1000 to 5000 | O=C(c1ocnc1C(F)F)N1Cc2[nH]cnc2[C@@H]1c1nc2ccccc2o1 [Example 922, (R)-(4-(benzo[d]oxazol-2-yl)-4,6-dihydropyrrolo[3,4-d]imidazol-5(1H)-yl)(4-(difluoromethyl)oxazol-5-yl)methanone] |
| 500 to 1000 | O=C(c1cnn2cc(Br)ccc12)N1CCc2[nH]cnc2[C@H]1c1nc2cc(F)ccc2o1 [Example 69, (S)-(6-bromopyrazolo[1,5-a]pyridin-3-yl)(4-(5-fluorobenzo[d]oxazol-2-yl)-6,7-dihydro-1H-imidazo[4,5-c]pyridin-5(4H)-yl)methanone] |
| ≤ 500 | CC(C)(O)c1nc(C(F)F)c(C(=O)N2CCc3[nH]cnc3[C@H]2c2nc3c(Cl)cccc3o2)o1 [Example 435, [(4S)-4-(4-chloro-1,3-benzoxazol-2-yl)-1,4,6,7-tetrahydroimidazo[4,5-c]pyridin-5-yl]-[4-(difluoromethyl)-2-(1-hydroxy-1-methyl-ethyl)oxazol-5-yl]methanone] |
| 1000 to 5000 | CC(C)(O)c1nc(C(F)F)c(C(=O)N2CCc3[nH]cnc3[C@@H]2c2nc3ccc(F)c(F)c3o2)o1 [Example 298, (R)-(4-(6,7-difluorobenzo[d]oxazol-2-yl)-6,7-dihydro-1H-imidazo[4,5-c]pyridin-5(4H)-yl)(4-(difluoromethyl)-2-(2-hydroxypropan-2-yl)oxazol-5-yl)methanone] |
| ≤ 500 | O=C(c1ocnc1CC(F)F)N1CCc2[nH]cnc2[C@H]1c1nc2cc(F)ccc2o1 [Example 865, (S)-(4-(2,2-difluoroethyl)oxazol-5-yl)(4-(5-fluorobenzo[d]oxazol-2-yl)-6,7-dihydro-1H-imidazo[4,5-c]pyridin-5(4H)-yl)methanone] |
| 500 to 1000 | Cc1nc(C(C)(C)C#N)oc1C(=O)N1CCc2[nH]cnc2[C@H]1c1nc2cc(F)ccc2o1 [Example 185, (S)-2-(5-(4-(5-fluorobenzo[d]oxazol-2-yl)-4,5,6,7-tetrahydro-1H-imidazo[4,5-c]pyridine-5-carbonyl)-4-methyloxazol-2-yl)-2-methylpropanenitrile] |
| ≤ 500 | O=C(c1oc(-c2cccnc2)nc1C(F)F)N1CCc2[nH]cnc2[C@@H]1c1nc2cccc(F)c2o1 [Example 589, (R)-(4-(difluoromethyl)-2-(pyridin-3-yl)oxazol-5-yl)(4-(7-fluorobenzo[d]oxazol-2-yl)-6,7-dihydro-1H-imidazo[4,5-c]pyridin-5(4H)-yl)methanone] |
| 1000 to 5000 | O=C(c1ocnc1C(F)F)N1CCc2[nH]cnc2[C@@H]1c1nc2c(F)cc(F)cc2o1 [Example 302, (R)-(4-(4,6-difluorobenzo[d]oxazol-2-yl)-6,7-dihydro-1H-imidazo[4,5-c]pyridin-5(4H)-yl)(4-(difluoromethyl)oxazol-5-yl)methanone] |
| 1000 to 5000 | Cc1cccc2oc([C@H]3c4nc[nH]c4CCN3C(=O)c3cnc(C(C)(C)O)o3)nc12 [Example 512, (R)-(2-(2-hydroxypropan-2-yl)oxazol-5-yl)(4-(4-methylbenzo[d]oxazol-2-yl)-6,7-dihydro-1H-imidazo[4,5-c]pyridin-5(4H)-yl)methanone] |
| 1000 to 5000 | O=C(c1nnc(-c2ccccn2)o1)N1CCc2[nH]cnc2[C@@H]1c1nc2c(F)cc(F)cc2o1 [Example 524, (R)-(4-(4,6-difluorobenzo[d]oxazol-2-yl)-6,7-dihydro-1H-imidazo[4,5-c]pyridin-5(4H)-yl)(5-(pyridin-2-yl)-1,3,4-oxadiazol-2-yl)methanone] |
| 1000 to 5000 | CC(C)(O)c1nc(C(F)F)c(C(=O)N2CCc3[nH]cnc3[C@@H]2c2nc3c(F)ccc(F)c3o2)o1 [Example 346, (R)-(4-(4,7-difluorobenzo[d]oxazol-2-yl)-6,7-dihydro-1H-imidazo[4,5-c]pyridin-5(4H)-yl)(4-(difluoromethyl)-2-(2-hydroxypropan-2-yl)oxazol-5-yl)methanone] |
| 1000 to 5000 | Cc1ccc2c(C(=O)N3CCc4[nH]cnc4[C@@H]3c3nc4cccc(F)c4o3)cnn2c1 [Example 324, (R)-(4-(7-fluorobenzo[d]oxazol-2-yl)-6,7-dihydro-1H-imidazo[4,5-c]pyridin-5(4H)-yl)(6-methylpyrazolo[1,5-a]pyridin-3-yl)methanone] |
| 500 to 1000 | Cc1cccc2nc([C@@H]3c4nc[nH]c4CCN3C(=O)c3nnc(-c4cnn(C(F)F)c4)o3)oc12 [Example 872, (S)-(5-(1-(difluoromethyl)-1H-pyrazol-4-yl)-1,3,4-oxadiazol-2-yl)(4-(7-methylbenzo[d]oxazol-2-yl)-6,7-dihydro-1H-imidazo[4,5-c]pyridin-5(4H)-yl)methanone] |
| 1000 to 5000 | Cc1ccc2oc([C@H]3c4nc[nH]c4CCN3C(=O)c3nnc(-c4ncccc4F)o3)nc2c1 [Example 654, (R)-(5-(3-fluoropyridin-2-yl)-1,3,4-oxadiazol-2-yl)(4-(5-methylbenzo[d]oxazol-2-yl)-6,7-dihydro-1H-imidazo[4,5-c]pyridin-5(4H)-yl)methanone] |
| ≤ 500 | CC(C)n1ncnc1C(=O)N1CCc2[nH]cnc2[C@H]1c1nc2cccc(F)c2o1 [Example 707, (S)-(4-(7-fluorobenzo[d]oxazol-2-yl)-6,7-dihydro-1H-imidazo[4,5-c]pyridin-5(4H)-yl)(1-isopropyl-1H-1,2,4-triazol-5-yl)methanone] |
| ≤ 500 | Cc1ccc(C)c2oc([C@@H]3c4nc[nH]c4CCN3C(=O)c3oc(C(C)(C)O)nc3C(F)F)nc12 [Example 659, (S)-(4-(difluoromethyl)-2-(2-hydroxypropan-2-yl)oxazol-5-yl)(4-(4,7-dimethylbenzo[d]oxazol-2-yl)-6,7-dihydro-1H-imidazo[4,5-c]pyridin-5(4H)-yl)methanone] |
| ≤ 500 | O=C(c1cnn2cc(N3CCC(F)CC3)ccc12)N1CCc2[nH]cnc2[C@H]1c1nc2c(F)cccc2o1 [Example 477, (S)-(4-(4-fluorobenzo[d]oxazol-2-yl)-6,7-dihydro-1H-imidazo[4,5-c]pyridin-5(4H)-yl)(6-(4-fluoropiperidin-1-yl)pyrazolo[1,5-a]pyridin-3-yl)methanone] |
| 500 to 1000 | O=C(c1cnn2cc(N3CCN(C4CC4)CC3)ccc12)N1CCc2[nH]cnc2[C@H]1c1nc2cc(F)ccc2o1 [Example 133, (S)-(6-(4-cyclopropylpiperazin-1-yl)pyrazolo[1,5-a]pyridin-3-yl)(4-(5-fluorobenzo[d]oxazol-2-yl)-6,7-dihydro-1H-imidazo[4,5-c]pyridin-5(4H)-yl)methanone] |
| 1000 to 5000 | O=C(c1ocnc1C(F)F)N1Cc2[nH]cnc2[C@H]1c1nc2ccccc2o1 [Example 921, (S)-(4-(benzo[d]oxazol-2-yl)-4,6-dihydropyrrolo[3,4-d]imidazol-5(1H)-yl)(4-(difluoromethyl)oxazol-5-yl)methanone] |
| 1000 to 5000 | Cc1cccc2nc([C@H]3c4nc[nH]c4CCN3C(=O)c3ccnn3C)oc12 [Example 748, (R)-(1-methyl-1H-pyrazol-5-yl)(4-(7-methylbenzo[d]oxazol-2-yl)-6,7-dihydro-1H-imidazo[4,5-c]pyridin-5(4H)-yl)methanone] |
| ≤ 500 | CC(C)(O)c1nc(Cl)c(C(=O)N2CCc3[nH]cnc3[C@H]2c2nc3cccc(F)c3o2)o1 [Example 272, (S)-(4-chloro-2-(2-hydroxypropan-2-yl)oxazol-5-yl)(4-(7-fluorobenzo[d]oxazol-2-yl)-6,7-dihydro-1H-imidazo[4,5-c]pyridin-5(4H)-yl)methanone] |

same assay, conditions: A375 cells expressing R408W PAH; 24 hrs with compound, then 20 μM sepiapterin and 800 μM 13C9,15N-Phenylalanine for 4 hours; 13C-Tyrosine by LC-MS; average where tested multiple times

| AC50 [nM] | Compound |
| --- | --- |
| 1000 to 5000 | CC(C)n1nccc1C(=O)N1CCc2[nH]cnc2C1c1nc2cccc(F)c2o1 (centres unmarked) |
| 1000 to 5000 | Cc1cccc2nc(C3c4nc[nH]c4CCN3C(=O)c3ncnn3C)oc12 (centres unmarked) |
| ≥ 5000 | Cn1nc(C(C)(C)C)cc1C(=O)N1CCc2[nH]cnc2C1c1nc2cccc(F)c2o1 (centres unmarked) |
| 1000 to 5000 | Cn1nc(-c2ccccn2)nc1C(=O)N1CCc2[nH]cnc2C1c1nc2cccc(F)c2o1 (centres unmarked) |
| 1000 to 5000 | Nc1cc(C(=O)N2CCc3[nH]cnc3C2c2nc3cc(F)ccc3o2)n(C(F)F)n1 (centres unmarked) |
| ≥ 5000 | COC(=O)Nc1ccc2c(C(=O)N3CCc4[nH]cnc4C3c3nc4cc(F)ccc4o3)cnn2c1 (centres unmarked) |
| 1000 to 5000 | CN1CCN(c2nnc(C(=O)N3CCc4[nH]cnc4C3c3nc4cc(F)ccc4o3)o2)CC1 (centres unmarked) |
| 1000 to 5000 | O=C(c1cnn2cc(CCN3CCOCC3)ccc12)N1CCc2[nH]cnc2C1c1nc2cc(F)ccc2o1 (centres unmarked) |
| 1000 to 5000 | O=C(CCc1cncs1)N1CCc2[nH]cnc2[C@H]1c1nc2c(F)cccc2o1 (single isomer, unassigned) |
| 1000 to 5000 | O=C(CCc1nccs1)N1CCc2[nH]cnc2C1c1nc2ccc(Br)cc2o1 (centres unmarked) |
| ≥ 5000 | O=C1CN(Cc2ccc3c(C(=O)N4CCc5[nH]cnc5C4c4nc5cc(F)ccc5o4)cnn3c2)CCN1 (centres unmarked) |
| ≥ 5000 | O=C(c1cnn2cc(N3CCOCC3)ccc12)N1CCc2[nH]cnc2C1c1nc2cc(F)ccc2o1 (centres unmarked) |
| 1000 to 5000 | COc1ccc2oc(C3c4nc[nH]c4CCN3C(=O)c3nc(C)nn3C)nc2c1 (centres unmarked) |
